From patent US9911927B2, “Compounds having semiconducting properties and related compositions and devices” (Flexterra, Inc., priority 2011, dated 2018)

Tests used:
[1] = Solubility in toluene at 60° C.; format: physicochemical
Procedure: The solubility of Cn-DNTTs (Cn=a linear alkyl chain) are very low in organic solvents (up to ˜80 mg/L in toluene at 60° C.) (see: Adv. Mater. 2011, 23, 1222-1225).

melting point [°C] | solubility ([1]; in toluene at 60° C.) | solubility relative to corresponding linear alkyl chain DNTT compounds ([1]; toluene at 60° C., times higher) [times] | SMILES
280 to 281 |  |  | CCCC(C)c1ccc2cc3c(cc2c1)sc1c2cc4ccc(C(C)CCC)cc4cc2sc31 (stereo not shown) [2,9-1MB-DNTT, 2,9-Bis(1-methylbutyl)dinaphtho [2,3-b:2′,3′-f]thieno[3,2-b]thiophene]
262 to 263 | about 50 g/L | > 500 | CCCCC(C)c1ccc2cc3c(cc2c1)sc1c2cc4ccc(C(C)CCCC)cc4cc2sc31 (stereo not shown) [2,9-1MP-DNTT, 2,9-Bis(1-methylpentyl)dinaphtho[2,3-b:2′,3′-f]thieno[3,2-b]thiophene]
